From ChEMBL document CHEMBL1146032, “Synthesis and biological activity of nociceptin/orphanin FQ(1-13)NH2 analogues modified in 9 and/or 13 position” (Bioorg Med Chem Lett, 2006)
Values joined by “and” are separate entries in the source; they are usually repeats but may differ in a detail not shown here. Equal entries are not always repeated. Where a SMILES comes first, the peptide text is derived from it. [ ]: non-standard residue; d: D form. Dap = NC[C@H](N)C(=O)O

Assays:
Format in all cases: functional, tissue-based
[1] = molecular target: Nociceptin receptor (Rattus norvegicus) (UniProt P35370); test: Activity against LFES-evoked contraction of Wistar rat vas deferens relative to N/OFQ(1-13)NH2 in presence of naloxone
[2] = molecular target: Nociceptin receptor (Rattus norvegicus) (UniProt P35370); test: (§1) Activity against LFES-evoked contraction of Wistar rat vas deferens
Nociceptin receptor [3] = molecular target: T1, Nociceptin receptor (Rattus norvegicus, UniProt P35370); test: as §1
[4] = molecular target: Nociceptin receptor (Rattus norvegicus) (UniProt P35370); test: Activity against LFES-evoked contraction of Wistar rat vas deferens relative to N/OFQ(1-13)NH2
[5] = molecular target: Nociceptin receptor (Rattus norvegicus) (UniProt P35370); test: (§2) Activity against LFES-evoked contraction of Wistar rat vas deferens in presence of naloxone
Nociceptin receptor [6] = molecular target: T1, Nociceptin receptor; test: as §2

T1 sequence (P35370 whole entry): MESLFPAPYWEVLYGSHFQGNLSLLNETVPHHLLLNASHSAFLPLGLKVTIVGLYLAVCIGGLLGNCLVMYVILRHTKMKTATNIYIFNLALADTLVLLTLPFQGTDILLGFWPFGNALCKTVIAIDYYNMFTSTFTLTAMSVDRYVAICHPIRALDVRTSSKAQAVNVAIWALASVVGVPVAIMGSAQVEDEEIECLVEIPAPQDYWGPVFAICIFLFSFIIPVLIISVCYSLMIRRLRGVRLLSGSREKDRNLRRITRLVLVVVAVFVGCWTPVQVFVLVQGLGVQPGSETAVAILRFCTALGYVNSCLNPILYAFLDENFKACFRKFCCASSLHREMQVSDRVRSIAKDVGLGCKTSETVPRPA
Chain of Nociceptin receptor (Rattus norvegicus) (P35370 whole entry): as above

C[C@H](NC(=O)CNC(=O)[C@@H](NC(=O)[C@H](Cc1ccccc1)NC(=O)CNC(=O)CNC(=O)[C@@H](N)Cc1ccccc1)[C@@H](C)O)C(=O)N[C@@H](CCCN=C(N)N)C(=O)N[C@@H](CCCN)C(=O)N[C@@H](CO)C(=O)N[C@@H](C)C(=O)N[C@@H](CCCN=C(N)N)C(=O)N[C@@H](CCCCN)C(N)=O
Activity [1]: 1.56
Emax [2]: -71%
EC50 (Nociceptin receptor [3]): 0.234 µM
Activity [4]: 2.45
Emax [5]: -77%
EC50 (Nociceptin receptor [6]): 0.214 µM

C[C@H](NC(=O)CNC(=O)[C@@H](NC(=O)[C@H](Cc1ccccc1)NC(=O)CNC(=O)CNC(=O)[C@@H](N)Cc1ccccc1)[C@@H](C)O)C(=O)N[C@@H](CCCN=C(N)N)C(=O)N[C@@H](CCCCN)C(=O)N[C@@H](CO)C(=O)N[C@@H](C)C(=O)N[C@@H](CCCN=C(N)N)C(=O)N[C@@H](CCCN)C(N)=O
Activity [1]: 0.04
Emax [2]: -60% and -57%
EC50 (Nociceptin receptor [3]): 6.17 µM and 11.2 µM
Activity [4]: 0.09 and 0.05
Emax [5]: -33% and -49%
EC50 (Nociceptin receptor [6]): 9.33 µM and 11 µM

C[C@H](NC(=O)CNC(=O)[C@@H](NC(=O)[C@H](Cc1ccccc1)NC(=O)CNC(=O)CNC(=O)[C@@H](N)Cc1ccccc1)[C@@H](C)O)C(=O)N[C@@H](CCCN=C(N)N)C(=O)N[C@@H](CN)C(=O)N[C@@H](CO)C(=O)N[C@@H](C)C(=O)N[C@@H](CCCN=C(N)N)C(=O)N[C@@H](CN)C(N)=O (H-FGGFTGAR[Dap]SAR[Dap]-NH2)
Activity [1]: 0.06
Emax [2]: -54%
EC50 (Nociceptin receptor [3]): 2.34 µM
Activity [4]: 0.25
Emax [5]: -46%
EC50 (Nociceptin receptor [6]): 6.17 µM

C[C@H](NC(=O)CNC(=O)[C@@H](NC(=O)[C@H](Cc1ccccc1)NC(=O)CNC(=O)CNC(=O)[C@@H](N)Cc1ccccc1)[C@@H](C)O)C(=O)N[C@@H](CCCNC(=N)N)C(=O)N[C@@H](CCCCN)C(=O)N[C@@H](CO)C(=O)N[C@@H](C)C(=O)N[C@@H](CCCNC(=N)N)C(=O)N[C@@H](CCCCN)C(N)=O
Activity [1]: 1
Emax [2]: -46%
Activity [4]: 1
Emax [5]: -49%

C[C@H](NC(=O)CNC(=O)[C@@H](NC(=O)[C@H](Cc1ccccc1)NC(=O)CNC(=O)CNC(=O)[C@@H](N)Cc1ccccc1)[C@@H](C)O)C(=O)N[C@@H](CCCN=C(N)N)C(=O)N[C@@H](CCCN)C(=O)N[C@@H](CO)C(=O)N[C@@H](C)C(=O)N[C@@H](CCCN=C(N)N)C(=O)N[C@@H](CCCN)C(N)=O
Activity [1]: 2.45
Emax [2]: -56%
EC50 (Nociceptin receptor [3]): 0.407 µM
Activity [4]: 1.41
Emax [5]: -70%
EC50 (Nociceptin receptor [6]): 0.977 µM
